One data set addresses T1, Aurora-B (h) (Homo sapiens, UniProt Q96GD4).
T1 construct: purchased Millipore UK Ltd (assays performed there as a service)
As to the kind of experiment: Aurora-B (h) kinase assay. The class given is biochemical. Conditions: [γ-33P-ATP] 10 μM or KM values; 40 minutes at room temperature. The procedure: The above assay procedure can be used to determine the IC50 for inhibition and/or the inhibition constant, Ki. […] The IC50 value is estimated by preparing a 10 point curve using a ½ log dilution series (for example, a typical curve may be prepared using the following compound concentrations: 3 μM, 1 μM, 0.3 μM, 0.1 μM, 0.03 μM, 0.01 μM, 0.003 μM, 0.001 μM, 0.0003 μM and 0 μM).
Aurora-B (h) is incubated with 8 mM MOPS pH 7.0, 0.2 mM EDTA, 30 μM […], 10 mM MgAcetate and [γ-^33PATP] […] The reaction is initiated by the addition of the MgATP mix. After incubation for 40 minutes at room temperature, the reaction is stopped by the addition of a 3% phosphoric acid solution. 10 μL of the reaction is then spotted onto a P30 filtermat and washed three times for 5 minutes in 75 mM phosphoric acid and once in methanol prior to drying and scintillation counting.
The kinase assays described herein were performed at Millipore UK Ltd, Dundee Technology Park, Dundee DD2 1SW, UK.

Data set [1] can be described thus: Pharmacokinetics after intravenous and oral administration in rats. The class given is in vivo. Conditions: for Clearance (CL) after iv dosing / AUC(0-t) / half-life / Vd: dose 1 mg/kg (Ex. 9: 0.6, Ex. 18: 0.5, Ex. 50: 0.96 mg/kg), iv dosing; for AUC(0-t) / half-life / Vd / bioavailability: rat, plasma; for Vd: read-out: Vss; for bioavailability: oral (generally 5 or 10 mg/kg) versus iv dosing, read-out: F (oral bioavailability). The gist of the method:
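Rats dosed i.v. (about 0.5, 0.6, 1 or 2 mg/kg) or p.o. (5 or 10 mg/kg) as solution, suspension or capsule. Plasma sampled over 24 h and quantified by LC/MS/MS in MRM mode with ESI.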

A further data set has as its target T2, JAK2 (h) (Homo sapiens, UniProt O60674).
T2 construct: purchased Millipore UK Ltd (assays performed there as a service)
The data set is described as follows: JAK2 (h) kinase assay. In kind it is biochemical. The settings on record: [γ-33P-ATP] 10 μM or KM values; 40 minutes at room temperature. The gist of the method:
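Radiometric filter-binding assay run at Millipore: human JAK2 with 100 μM peptide substrate in 8 mM MOPS pH 7.0, 0.2 mM EDTA, 10 mM MgAcetate, [γ-^33P]ATP at 10 μM or KM, 40 min at room temperature. Acid-stopped, spotted on P30 filtermat, scintillation counted; IC50 from 10-point ½-log curve.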

T2 sequence (O60674 whole entry): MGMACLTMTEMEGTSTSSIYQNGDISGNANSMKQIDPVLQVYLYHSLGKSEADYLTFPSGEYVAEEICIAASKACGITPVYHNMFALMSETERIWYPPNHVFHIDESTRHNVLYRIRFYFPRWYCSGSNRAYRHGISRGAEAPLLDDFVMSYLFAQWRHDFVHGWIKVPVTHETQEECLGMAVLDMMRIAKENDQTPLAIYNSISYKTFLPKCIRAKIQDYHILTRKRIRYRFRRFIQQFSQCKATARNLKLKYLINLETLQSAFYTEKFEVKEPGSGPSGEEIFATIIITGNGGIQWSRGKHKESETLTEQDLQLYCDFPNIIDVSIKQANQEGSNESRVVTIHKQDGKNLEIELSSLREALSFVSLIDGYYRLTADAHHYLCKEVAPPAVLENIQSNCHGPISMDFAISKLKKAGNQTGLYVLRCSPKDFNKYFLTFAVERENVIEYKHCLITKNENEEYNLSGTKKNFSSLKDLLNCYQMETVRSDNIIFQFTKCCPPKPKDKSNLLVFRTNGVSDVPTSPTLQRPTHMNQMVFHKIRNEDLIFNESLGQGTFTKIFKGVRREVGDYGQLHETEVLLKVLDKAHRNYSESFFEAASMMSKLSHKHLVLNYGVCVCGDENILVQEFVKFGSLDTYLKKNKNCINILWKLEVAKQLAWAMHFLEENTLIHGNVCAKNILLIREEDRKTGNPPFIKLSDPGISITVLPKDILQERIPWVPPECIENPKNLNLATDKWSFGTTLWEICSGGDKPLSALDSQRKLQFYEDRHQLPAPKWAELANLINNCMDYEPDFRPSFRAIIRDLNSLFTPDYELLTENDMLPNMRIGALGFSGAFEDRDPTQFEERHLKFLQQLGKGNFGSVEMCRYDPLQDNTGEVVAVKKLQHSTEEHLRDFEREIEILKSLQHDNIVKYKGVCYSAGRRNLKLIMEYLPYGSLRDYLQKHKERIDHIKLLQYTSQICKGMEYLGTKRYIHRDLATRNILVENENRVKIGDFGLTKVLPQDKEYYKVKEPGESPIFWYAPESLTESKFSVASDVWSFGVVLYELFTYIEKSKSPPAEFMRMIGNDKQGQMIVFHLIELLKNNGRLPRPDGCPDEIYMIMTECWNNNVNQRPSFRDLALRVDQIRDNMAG
T1 sequence (Q96GD4 whole entry): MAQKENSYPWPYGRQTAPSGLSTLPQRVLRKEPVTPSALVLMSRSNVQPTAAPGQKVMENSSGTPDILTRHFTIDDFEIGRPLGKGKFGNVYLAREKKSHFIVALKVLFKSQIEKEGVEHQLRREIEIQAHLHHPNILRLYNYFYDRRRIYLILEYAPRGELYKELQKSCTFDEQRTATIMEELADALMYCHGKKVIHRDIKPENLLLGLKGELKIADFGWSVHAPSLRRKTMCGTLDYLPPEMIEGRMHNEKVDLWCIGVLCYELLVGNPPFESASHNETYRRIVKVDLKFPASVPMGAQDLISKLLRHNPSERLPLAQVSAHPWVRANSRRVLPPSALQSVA

`CCC1CN(c2ccc(C#N)cn2)CCC1Nc1nc(Nc2ccn3c(C)cnc3c2)ncc1Cl` (stereo not drawn) [Example 2, 6-(4-((5-chloro-2-((3-methylimidazo[1,2-a]pyridin-7-yl)amino)pyrimidin-4-yl)amino)-3-ethylpiperidin-1-yl)nicotinonitrile] had an IC50 against Aurora-B (h) of 46 nM. Also, in data set [1], the “Clearance (CL) after iv dosing” value is 8.5 mL/min/kg, the area under the curve AUC(0-t) stood at 1960 ng·h/mL, the half-life is 66 min and the Vd worked out at 0.73 L/kg. Besides, the bioavailability in data set [1] is 50.2%. This compound also gave an IC50 on JAK2 (h) of 3 nM.
The compound `CC(C)(O)Cc1nc2ccc(Nc3ncc(Cl)c(NC4CCN(c5ccc(C#N)cn5)CC4)n3)cn2n1` [Example 67, 6-(4-((5-chloro-2-((2-(2-hydroxy-2-methylpropyl)-[1,2,4]triazolo[1,5-a]pyridin-6-yl)amino)pyrimidin-4-yl)amino)piperidin-1-yl)nicotinonitrile] displayed an IC50 at Aurora-B (h) of 793 nM. Also, in data set [1], the “Clearance (CL) after iv dosing” value came to 11.2 mL/min/kg, the AUC(0-t) stood at 1470 ng·h/mL, the half-life is 87 min and the Vd turned out to be 1.25 L/kg. Further, the bioavailability in data set [1] was determined as 49.7%. Moreover, half-maximal inhibition at JAK2 (h) (IC50) was put at 39 nM.
As for `CC(C)(O)c1cnc2cc(Nc3ncc(Cl)c(NC4CCN(c5ccc(C#N)cn5)CC4)n3)ccn12` [Example 68, 6-(4-((5-chloro-2-((3-(2-hydroxypropan-2-yl)imidazo[1,2-a]pyridin-7-yl)amino)pyrimidin-4-yl)amino)piperidin-1-yl)nicotinonitrile], the IC50 against Aurora-B (h) amounted to 223 nM. Besides, in data set [1], the “Clearance (CL) after iv dosing” value is 15 mL/min/kg, the AUC(0-t) was 1090 ng·h/mL, the half-life was 80.4 min and the Vd was 1.51 L/kg. Inhibition against JAK2 (h) was half-maximal at 3 nM (IC50).
`CC(C)(O)Cn1nnc2cc(Nc3ncc(Cl)c(NC4CCN(c5ccc(C#N)cn5)CC4)n3)ccc21` [Example 69, 6-(4-((5-chloro-2-((1-(2-hydroxy-2-methylpropyl)-1H-benzo[d][1,2,3]triazol-5-yl)amino)pyrimidin-4-yl)amino)piperidin-1-yl)nicotinonitrile] returned an IC50 on Aurora-B (h) of 45 nM. In addition, in data set [1], the “Clearance (CL) after iv dosing” value stood at 22.2 mL/min/kg, the AUC(0-t) came out at 752 ng·h/mL, the half-life is 56.4 min and the Vd was determined as 1.7 L/kg. The bioavailability in data set [1] was determined as 69.8%. Further, at JAK2 (h), half-maximal inhibition (IC50) was put at 2 nM.
At Aurora-B (h), `CC(C)(O)c1cn2ccc(Nc3ncc(Cl)c(NC4CCN(c5ccc(C#N)cn5)CC4)n3)cc2n1` [Example 70, 6-(4-((5-chloro-2-((2-(2-hydroxypropan-2-yl)imidazo[1,2-a]pyridin-7-yl)amino)pyrimidin-4-yl)amino)piperidin-1-yl)nicotinonitrile] showed an IC50 of 125 nM. In data set [1], the “Clearance (CL) after iv dosing” value stood at 19.3 mL/min/kg, the AUC(0-t) is 860 ng·h/mL, the half-life is 56.4 min and the Vd was found to be 1.39 L/kg. In addition, in data set [1], the bioavailability worked out at 23.5%. The compound also showed an IC50 on JAK2 (h) of 8 nM.
With `CC(C)(O)Cc1cn2cc(Nc3ncc(Cl)c(NC4CCN(c5ccc(C#N)cn5)CC4)n3)ccc2n1` [Example 73, 6-(4-((5-chloro-2-((2-(2-hydroxy-2-methylpropyl)imidazo[1,2-a]pyridin-6-yl)amino)pyrimidin-4-yl)amino)piperidin-1-yl)nicotinonitrile], at Aurora-B (h), the IC50 came out at 13 nM. In addition, in data set [1], the “Clearance (CL) after iv dosing” value turned out to be 36.5 mL/min/kg, the area under the curve AUC(0-t) was determined as 464 ng·h/mL, the half-life was 42 min and the Vd was found to be 1.8 L/kg. Besides, the bioavailability in data set [1] amounted to 56.4%. The same compound gave an IC50 on JAK2 (h) of 5 nM.
Turning to `CC(C)(O)Cc1nc2cc(Nc3ncc(Cl)c(NC4CCN(c5ccc(C#N)nn5)CC4)n3)ccn2n1` [Example 77, 6-(4-((5-chloro-2-((2-(2-hydroxy-2-methylpropyl)-[1,2,4]triazolo[1,5-a]pyridin-7-yl)amino)pyrimidin-4-yl)amino)piperidin-1-yl)pyridazine-3-carbonitrile], it took 132 nM to reach half-maximal inhibition against Aurora-B (h) (IC50). For the same compound, in data set [1], the “Clearance (CL) after iv dosing” value worked out at 151 mL/min/kg, the AUC(0-t) stood at 1860 ng·h/mL, the half-life is 50.6 min and the Vd was 0.623 L/kg. The same compound displayed an IC50 on JAK2 (h) of 17 nM.
With `CC(C)(O)Cc1nc2cc(Nc3ncc(Cl)c(NC4CCN(c5ccc(C#N)cn5)CC4)n3)ccn2n1` [Example 78, 6-(4-((5-chloro-2-((2-(2-hydroxy-2-methylpropyl)-[1,2,4]triazolo[1,5-a]pyridin-7-yl)amino)pyrimidin-4-yl)amino)piperidin-1-yl)nicotinonitrile], the IC50 against Aurora-B (h) was found to be 185 nM. Besides, in data set [1], the “Clearance (CL) after iv dosing” value is 187 mL/min/kg, the AUC(0-t) turned out to be 1490 ng·h/mL, the half-life is 59.2 min and the Vd is 0.795 L/kg. Also, the bioavailability in data set [1] came out at 84.8%. This compound also displayed an IC50 against JAK2 (h) of 10 nM.

Values taken from patent publication US10683297B2 (Sunshine Lake Pharma Co., Ltd., priority 2017, dated 2020).
